For the experiment, the target named is T1, human FASN (Homo sapiens, UniProt P49327).
T1 construct: was purified from SKBR3 cells using procedures modified from those in Jayakumar et al; endogenous in cells; host or cells: SKBR3 human breast cancer cells (ATCC); Endogenous enzyme purified by ammonium sulfate precipitation and a mono Q column
Kind of experiment: FASN Scintillation Proximity Flashplate Assay. It is filed as biochemical. To be noted: human FASN purified from SKBR3 cells; unstarred symbols. In outline:
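Human FASN purified from SKBR3 cells (1 nM final) preincubated with compound 30 min at 37 °C in phosphate buffer pH 7.0, then reacted 2 h at 37 °C with 100 μM acetyl-CoA plus [3H]-acetyl-CoA, 300 μM malonyl-CoA, 2 mM NADPH. Stopped with orlistat; scintillation-proximity CPM gave % inhibition, four-parameter IC50.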
Background: Scintillation proximity formats need no separation of bound from free tracer.

Here are results for 20 molecules from patent publication US9346769B2, “Tetrazolones as inhibitors of fatty acid synthase” (Infinity Pharmaceuticals, Inc., priority 2010, dated 2016).

The structures appear in SMILES notation. pIC50: −log10 of the molar value.

T1 sequence (P49327 whole entry): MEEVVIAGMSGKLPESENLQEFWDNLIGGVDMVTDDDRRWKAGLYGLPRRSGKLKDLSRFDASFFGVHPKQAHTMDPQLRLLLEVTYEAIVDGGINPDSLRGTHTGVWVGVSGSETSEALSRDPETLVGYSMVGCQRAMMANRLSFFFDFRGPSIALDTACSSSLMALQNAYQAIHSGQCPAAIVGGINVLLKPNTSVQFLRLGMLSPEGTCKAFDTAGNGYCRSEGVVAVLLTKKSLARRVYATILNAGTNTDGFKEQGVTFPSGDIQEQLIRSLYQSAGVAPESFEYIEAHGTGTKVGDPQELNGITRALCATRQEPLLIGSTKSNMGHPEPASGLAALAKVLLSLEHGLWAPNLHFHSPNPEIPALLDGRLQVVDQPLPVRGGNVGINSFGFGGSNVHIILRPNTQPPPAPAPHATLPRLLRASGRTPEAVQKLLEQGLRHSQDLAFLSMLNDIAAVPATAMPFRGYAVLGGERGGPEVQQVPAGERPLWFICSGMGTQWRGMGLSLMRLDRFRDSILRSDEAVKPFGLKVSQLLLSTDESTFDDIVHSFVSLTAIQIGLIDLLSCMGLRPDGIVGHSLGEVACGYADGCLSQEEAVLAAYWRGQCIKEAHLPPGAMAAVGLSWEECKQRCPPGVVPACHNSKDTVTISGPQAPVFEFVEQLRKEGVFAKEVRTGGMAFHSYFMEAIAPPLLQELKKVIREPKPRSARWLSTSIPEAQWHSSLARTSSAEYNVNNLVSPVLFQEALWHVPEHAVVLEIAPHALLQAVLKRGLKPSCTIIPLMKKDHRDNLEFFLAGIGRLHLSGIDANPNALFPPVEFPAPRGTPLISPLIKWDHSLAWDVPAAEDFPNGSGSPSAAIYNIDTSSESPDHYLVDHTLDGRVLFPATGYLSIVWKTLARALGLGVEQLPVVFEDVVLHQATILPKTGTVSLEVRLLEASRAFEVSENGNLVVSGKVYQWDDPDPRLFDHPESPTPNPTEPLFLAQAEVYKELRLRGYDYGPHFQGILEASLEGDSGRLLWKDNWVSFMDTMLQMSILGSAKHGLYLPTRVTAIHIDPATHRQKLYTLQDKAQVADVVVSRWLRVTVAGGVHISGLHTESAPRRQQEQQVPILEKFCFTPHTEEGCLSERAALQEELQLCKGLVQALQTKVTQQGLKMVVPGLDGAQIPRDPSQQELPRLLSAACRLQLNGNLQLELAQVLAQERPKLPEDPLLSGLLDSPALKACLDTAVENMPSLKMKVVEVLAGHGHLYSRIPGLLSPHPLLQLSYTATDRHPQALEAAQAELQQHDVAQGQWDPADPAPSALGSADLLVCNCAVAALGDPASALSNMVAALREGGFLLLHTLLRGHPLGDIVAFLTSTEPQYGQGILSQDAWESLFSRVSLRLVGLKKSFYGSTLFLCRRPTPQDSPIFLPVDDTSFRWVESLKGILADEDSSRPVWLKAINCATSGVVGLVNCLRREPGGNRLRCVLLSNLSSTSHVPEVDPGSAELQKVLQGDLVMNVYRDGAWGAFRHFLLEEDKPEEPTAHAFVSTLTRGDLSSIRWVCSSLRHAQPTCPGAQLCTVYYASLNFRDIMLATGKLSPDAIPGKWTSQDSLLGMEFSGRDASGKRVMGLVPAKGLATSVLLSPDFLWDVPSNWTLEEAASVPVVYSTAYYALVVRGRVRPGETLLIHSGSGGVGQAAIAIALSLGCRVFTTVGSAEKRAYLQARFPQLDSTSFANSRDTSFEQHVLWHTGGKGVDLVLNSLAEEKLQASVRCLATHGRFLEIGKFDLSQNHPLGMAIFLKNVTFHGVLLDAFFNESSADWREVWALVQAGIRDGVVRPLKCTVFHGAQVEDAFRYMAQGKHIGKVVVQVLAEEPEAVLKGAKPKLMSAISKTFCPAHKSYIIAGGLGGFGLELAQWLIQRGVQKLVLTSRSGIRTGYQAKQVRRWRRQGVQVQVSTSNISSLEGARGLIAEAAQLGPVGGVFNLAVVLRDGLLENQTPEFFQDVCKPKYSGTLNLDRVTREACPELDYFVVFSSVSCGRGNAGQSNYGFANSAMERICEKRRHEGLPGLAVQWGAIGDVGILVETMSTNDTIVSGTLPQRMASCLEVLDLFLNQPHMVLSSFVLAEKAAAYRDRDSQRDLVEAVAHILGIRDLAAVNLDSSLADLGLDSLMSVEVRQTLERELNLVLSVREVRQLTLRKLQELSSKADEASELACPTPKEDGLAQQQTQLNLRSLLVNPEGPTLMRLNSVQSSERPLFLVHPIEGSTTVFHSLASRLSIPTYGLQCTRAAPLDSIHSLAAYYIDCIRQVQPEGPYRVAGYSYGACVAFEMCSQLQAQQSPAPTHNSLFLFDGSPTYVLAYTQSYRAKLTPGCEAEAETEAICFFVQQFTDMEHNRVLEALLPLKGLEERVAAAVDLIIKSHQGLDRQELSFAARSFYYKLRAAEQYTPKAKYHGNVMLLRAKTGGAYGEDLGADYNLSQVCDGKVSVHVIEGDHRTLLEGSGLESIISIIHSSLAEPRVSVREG

As for `COc1ccccc1-n1nnn(C(=O)N(c2ccc(Br)cc2)c2ccc(C(=O)O)cc2)c1=O`, the pIC50 was over 7.82.
Under `CCCCOc1ccc(C(=O)O)cc1N(CC)C(=O)n1nnn(-c2ccccc2OC)c1=O` stands over 7.82; under `COc1ccc(N(C(=O)n2nnn(-c3c(F)cccc3F)c2=O)C(C)C)cc1C(=O)O`, over 7.82.
Under `O=C(O)c1ccc(F)c(N(C(=O)n2nnn(-c3c(F)cccc3F)c2=O)C2CCCC2)c1` stands over 7.82; under `O=C(N1Cc2cccc3cccc(c23)C1)n1nnn(-c2c(F)cccc2F)c1=O`, 7.00 to 7.82.
Under `O=C(N1CCCc2cccc(F)c21)n1nnn(-c2c(F)cccc2F)c1=O` stands over 7.82; under `CN(C)c1ccc2c(c1)OC(=O)CC2CC(=O)Nc1cccc2c1CCCN2C(=O)n1nnn(-c2c(F)cccc2F)c1=O` (centres unmarked), 7.00 to 7.82.
The molecule `CCN(C(=O)n1nnn(-c2ccccc2Cl)c1=O)C1CCCC1` showed a pIC50 of 5.30 to 6.70.
Molecule `CCCN(C(=O)n1nnn(-c2ccccc2Cl)c1=O)C1CCCC1` showed a negative-log IC50 (pIC50) of 5.30 to 6.70.
As for `CN(C)N(C(=O)n1nnn(-c2ccccc2Cl)c1=O)C1CCCC1`, the figure is 5.30 to 6.70.
Consider `COc1ccc(COC(=O)[C@H]2CC[C@H](N(C(=O)n3nnn(-c4c(F)cccc4OC)c3=O)c3ccccc3)CC2)cc1`, for which the pIC50 was 7.00 to 7.82.
As for `COc1cccc(F)c1-n1nnn(C(=O)N(c2ccccc2)[C@H]2CC[C@H](C(=O)O)CC2)c1=O`, the figure is 6.70 to 7.00; as for `CN(C)N(C(=O)n1nnn(-c2ccccc2Cl)c1=O)C1=CCCC1`, 7.00 to 7.82; as for `CN(C)N(C(=O)n1nnn(-c2ccccc2Br)c1=O)C1=CCCC1`, 7.00 to 7.82.
Under `CN(C)N(C(=O)n1nnn(-c2ccccc2F)c1=O)C1=CCCC1` stands 6.70 to 7.00; under `CN(C)N(C(=O)n1nnn(-c2c(Cl)cccc2Cl)c1=O)C1=CCCC1`, 7.00 to 7.82; under `CN(C)N(C(=O)n1nnn(-c2c(F)cccc2F)c1=O)C1=CCCC1`, 7.00 to 7.82.
Take `CN(C)N(C(=O)n1nnn(-c2ccccc2Cl)c1=O)C1=CCCCCC1`: the negative-log IC50 (pIC50) was 6.70 to 7.00.
Under `CN(C)N(C(=O)n1nnn(-c2ccccc2Cl)c1=O)/C1=C/CCCCCC1` stands 5.30 to 6.70; under `CCCN(CC1CC1)C(=O)n1nnn(-c2ccccc2Cl)c1=O`, 5.30 to 6.70.

By pIC50 is commonly meant −log10 of the IC50, conventionally taken in molar units.
